Earlier results on two compounds are cited in patent publication US8333997B2, “Compositions for sustained release of nitric oxide, methods of preparing same and uses thereof” (priority 2006, dated 2012).

Data set [1] concerns Methicillin sensitive and Methicillin resistant species. The settings on record: against Methicillin sensitive and Methicillin resistant species.
Another data set deals with S. aureus. The settings on record: dose-response study on S. aureus.

For `C/C(=C\C(=O)OCCCCCCCCC(=O)O)C[C@@H]1OC[C@H](C[C@@H]2O[C@H]2[C@@H](C)[C@H](C)O)[C@@H](O)[C@H]1O` [Mupirocin], the efficacious concentration ranges in data set [1] is 25 to 256 mg/L.

Turning to `[N]=O` [NO, nitric oxide], the “concentration at which NO exhibits potent antimicrobial properties” value with S. aureus is listed as “above 160 ppm”.
